Laboratory results: patent publication US12692274B2, “Tetrahydroisoquinoline derivatives for the treatment of red blood disorders and inflammatory diseases” (Sanofi, priority 2020, dated 2026)
pEC50, pIC50: −log10 of the molar value. Where “and” joins values, the source holds several entries; their conditions need not be identical. Equal values may be shown once.

What was measured:
[1] = system: NQO1 activation in BEAS-2B cells; assay: BEAS-2B cellular MTT assay of NQO1 activation, 0.3% HSA; type: cell-based
Description: (§1) The growth rate of the BEAS-2B cells changed based on the lot of BEGM SingleQuots in the BEGM media. The cell growth rate was determined for each lot of SingleQuots. Ideally, cells were thawed into media with the new lot of SingleQuots and grown for two passages before testing; however, growing an active culture in the new lot of media for two to three passages before testing was also acceptable. Until the cell growth rate was determined, cells were seeded at different densities (cells/cm^2) in multiple tissue culture flasks in order to avoid the cells becoming more than 70% confluent. Cells should not go above 70% confluent as the cells differentiate when they become confluent. After the cells were grown in the new lot of media as described above, the number of cells per well needed to seed in the collagen plates was determined by seeding different numbers of cells per well and incubating for 48 hours. Cell confluency was checked after 48 hours and a cell number that results in just below to just above confluency was chosen for future plate seeding. Cell confluency in the assay plate was 95-100% confluent after 48 hours.
(§2) Cell media consists of BEBM basal media with the BEGM SingleQuots added. SingleQuots vials were thawed in the tissue culture hood, and GA-1000 (Gentamicin-Amphotericin) was not added.
(§3) If complete media was to be used immediately, BEBM basal media was warmed to room temperature in the hood, but not as high as 37° C. When the media was made for future use, SingleQuots were added to cold BEBM. One at a time, the SingleQuots components (except GA-1000) were added to the BEBM media. After removal of each component from the vial, the vial was rinsed with 0.5-1 mL of BEBM (depending on the volume the vial could hold) and added to the bottle of BEBM. Once all components were added, the label that comes with the SingleQuots kit was put on the bottle of media and the date was recorded. The bottle of media was mixed by gentle shaking. The media was not filtered. This media was stored at 4° C., with any leftover media disposed of one month after the date the SingleQuots were added.
(§4) BEAS-2B Cell Splitting Protocol:
(§5) First, Trypsin was warmed to 37° C. in the water bath. The media was then warmed to room temperature by letting it sit in the tissue culture hood, but not as high as 37° C. The media was aspirated from flask(s) and the flask(s) were washed with PBS. From 1 to 1.5 mL of warm trypsin were added to each flask and incubated at 37° C. until cells came off the flask on their own (~8-10 minutes), with no vigorous tapping on the flask to detach the cells.
(§6) Media was added to each flask to a total volume of 8-10 mL per flask and transferred to 15 mL conical tube(s). The cells were spun down at 120 g for 5 minutes, level 5 brake. The cells can be spun down between 100 and 150 g. Next the media was aspirated and the cell pellet was resuspended in fresh media by pipetting up and down and flicking the tube side to side. Any clumps of cells that remained were allowed to settle to the bottom of the tube before the top suspension was transferred into another tube, leaving about 1 mL of media in the original tube. The 1 mL of media and cell clumps were mixed with a single channel p1000 pipette, and any remaining clumps were removed before adding the cells in suspension to the other tube. The suspension was mixed with a pipette, an aliquot was removed, and the cells were counted. The amount of cells/cm^2 desired was calculated and the required volume of cells was added to tissue culture flasks. For example, use of SingleQuots with ~6000 cells/cm^2 was appropriate for a three day incubation and ~3000 cells/cm^2 for a five day incubation. Optimal cell density differed depending on lot of SingleQuots. The flasks were incubated at 37° C. in 5% CO2.
(§7) Day One: Seeding BEAS-2B Cells in Collagen Plates:
(§8) Plate(s) were either seeded with 0.3% or 0% HSA. While the protocol was similar for both conditions any differences are noted herein below. […]

[2] = biological target: HIS-Keap1 full length / Biotin-Nrf2 (16-mer) (Homo sapiens, UniProt Q14145); assay: biochemical
HIS-Keap1 full length / Biotin-Nrf2 (16-mer), sequence (Q14145 whole entry): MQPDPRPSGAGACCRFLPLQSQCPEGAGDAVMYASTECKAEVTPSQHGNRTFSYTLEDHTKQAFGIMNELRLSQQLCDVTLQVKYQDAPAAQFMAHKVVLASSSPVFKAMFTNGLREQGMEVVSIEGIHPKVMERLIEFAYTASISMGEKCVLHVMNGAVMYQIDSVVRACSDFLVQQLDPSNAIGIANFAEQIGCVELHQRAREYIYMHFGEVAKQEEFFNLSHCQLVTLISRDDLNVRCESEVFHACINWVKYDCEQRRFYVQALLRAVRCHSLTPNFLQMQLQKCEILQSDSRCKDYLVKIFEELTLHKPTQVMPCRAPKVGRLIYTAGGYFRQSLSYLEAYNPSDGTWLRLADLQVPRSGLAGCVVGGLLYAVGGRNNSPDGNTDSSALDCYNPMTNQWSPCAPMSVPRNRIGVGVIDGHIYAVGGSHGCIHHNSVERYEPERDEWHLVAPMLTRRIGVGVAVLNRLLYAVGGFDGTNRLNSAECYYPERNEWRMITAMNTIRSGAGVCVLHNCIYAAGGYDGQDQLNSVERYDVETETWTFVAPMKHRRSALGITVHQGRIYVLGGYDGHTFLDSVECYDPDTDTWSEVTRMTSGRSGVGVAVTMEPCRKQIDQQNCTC

[3] = system: NQO1 activation in BEAS-2B cells; assay: BEAS-2B cellular MTT assay of NQO1 activation, 0% HSA; type: cell-based
Description: as §1, §2, §3, §4, §5, §6, §7, §8

[4] = Homo sapiens, BEAS+, read-out: BEAS+ EC50
[5] = Homo sapiens, serum free, read-out: BEAS EC50 (nM) serum free
[6] = serum free, read-out: BEAS EC50 (nM) serum free
[7] = BEAS+ W, read-out: BEAS+ W EC50
[8] = Homo sapiens, BEAS+ W, read-out: BEAS+ W EC50

SMILES | pEC50 [1, 4] | pIC50 [2] | EC50 [3, 5] | further results
O=C(O)CC1c2cnc(nc2)OCCCCc2ccc(cc2Cl)C(=O)N2CCc3ccc1cc3C2 (stereo not shown) [Compound 221] | < 5.00 | 6.66 |  | 
O=C(O)CC1c2cnc(nc2)OCCCCCc2ccc(c(Cl)c2)C(=O)N2CCc3ccc1cc3C2 (stereo not shown) [Compound 229] |  | 7.98 | 1430 nM | EC50 [3, 6]: 2230 nM
O=C(O)CC1c2cnc(nc2)OCCCCc2cc(F)c(c(F)c2)C(=O)N2CCc3ccc1cc3C2 (stereo not shown) [Compound 242] | < 5.00 | < 6.00 |  | 
O=C(O)CC1c2cnc(nc2)OCCCCCc2cc(F)c(c(F)c2)C(=O)N2CCc3ccc1cc3C2 (stereo not shown) [Compound 246] | 6.00 | 8.28 |  | pEC50 ([1]; BEAS+, read-out: BEAS+ EC50): 5.83
O=C(O)CC1c2ccc3c(c2)CN(CC3)C(=O)c2ccc(cc2F)OCCCCCCn2nnc3c(Cl)c1ccc32 (stereo not shown) [Compound 250] |  | 8.70 and 8.72 | 16.4 nM | EC50 [3, 6]: 16.5 nM
O=C(O)CC1c2ccc3c(c2)CN(CC3)C(=O)c2ccc(cc2C(F)(F)F)OCCCCCCn2nnc3cc1ccc32 (stereo not shown) [Compound 308] |  | > 10.00 | 910 nM | 
Cc1c2ccc(c1C)C(=O)N1CCc3ccc(cc3C1)C(CC(=O)O)c1ccc3c(nnn3CCCCCCO2)c1C (stereo not shown) [Compound 309] |  | > 10.00 | 3.2 nM | 
Cc1c2ccc3c1nnn3CCCCCC(F)(F)Oc1ccc(cc1)C(=O)N1CCc3ccc(cc3C1)C2CC(=O)O (stereo not shown) [Compound 311] |  | 10.00 and > 10.00 | 10.4 nM | 
Cc1c2ccc(c1C)C(=O)N1CCc3ccc(cc3C1)C(CC(=O)O)c1ccc3c(c1)nnn3CCCCCCO2 (stereo not shown) [Compound 312] |  | > 10.00 | 40.7 nM | 
Cc1c2ccc3c1nnn3CCCCCCCc1ccc(cc1)C(=O)N1CCc3ccc(cc3C1)C2CC(=O)O (stereo not shown) [Compound 313] |  | > 10.00 and 9.40 | 8.8 nM | 
Cc1cc2ccc1C(=O)N1CCc3ccc(cc3C1)[C@H](CC(=O)O)c1ccc3c(c1)nnn3CCCCCCO2 [Compound 326] | 6.09 | 8.57 and 9.10 |  | 
O=C(O)CC1c2ccc3c(c2)CN(CC3)C(=O)c2ccc(cn2)OCCCCCCn2nnc3cc1ccc32 (stereo not shown) [Compound 328] |  | 9.05 and > 10.00 | 6710 nM | 
COC(=O)CC1c2ccc3c(c2)CN(CC3)C(=O)c2ccc(cc2C)OCCCCCn2nnc3cc1ccc32 (stereo not shown) [Compound 333] | < 5.00 | 5.74 and < 6.00 and 5.91 |  | 
Cc1c2ccc3c1nnn3CCOCCCc1ccc(c(F)c1)C(=O)N1CCc3ccc(cc3C1)[C@H]2CC(=O)O [Compound 363] |  | 8.05 and 8.07 |  | pEC50 [1, 7]: 6.15; pEC50 [1, 8]: 6.17
Cc1c2ccc3c1nnn3CCCOCCOc1cc(F)c(c(F)c1)C(=O)N1CCc3ccc(cc3C1)C2CC(=O)O (stereo not shown) [Compound 368, 2-(20,32-difluoro-34-methyl-22-oxo-14,17-dioxa-8,9,10,23-tetrazahexacyclo[21.5.3.218,21.13,7.06,10.026,30]tetratriaconta-1(29),3(34),4,6,8,18(33),19,21(32),26(30),27-decaen-2-yl)acetic Acid] | 6.94 | 10.00 and 9.70 |  | pEC50 ([1]; BEAS+, read-out: BEAS+ EC50): 6.86
Cc1cc2ccc1C(=O)N1CCc3ccc(cc3C1)C(CC(=O)O)c1ccc3c(nnn3CCCOCCO2)c1C (stereo not shown) [Compound 374] |  | 9.00 |  | pEC50 [1, 7]: 6.53; pEC50 [1, 8]: 6.55
Cc1c2ccc3c1nnn3C/C=C/CCCc1ccc(c(F)c1)C(=O)N1CCc3ccc(cc3C1)C2C(C)C(=O)O (stereo not shown) [Compound 375] |  | 8.85 |  | EC50 ([3]; Homo sapiens, Serum Free W, read-out: BEAS EC50 (nM) Serum Free W): 2.9 nM
Cc1c2ccc3c1nnn3CCCCc1ccc3ccc(cc3c1)C(=O)N1CCc3ccc(cc3C1)C2CC(=O)O (stereo not shown) [Compound 390] | 5.47 | 8.29 and 8.25 |  | pEC50 ([1]; BEAS+, read-out: BEAS+ EC50): 5.24
Cc1c2ccc3c1nnn3CCC/C=C/COc1cnc(nc1)C(=O)N1CCc3ccc(cc3C1)C2CC(=O)O (stereo not shown) [Compound 400] | 7.50 | 8.70 |  | pEC50 ([1]; BEAS+, read-out: BEAS+ EC50): 7.53
